From patent publication US4376783A, “Acylated guanidines and medicaments containing them” (Compagnie Francaise de Sucerie, priority 1980, dated 1983)
Entries after “also recorded” stand apart in the source; their conditions may differ.

How the values were obtained:
[1] = Pharmacological tests: cardiac stimulant effect; assay type: in vivo; conditions: at relatively high doses (of the order of 50 mg)
Source text: Pharmacological tests have shown also that:

[2] = Acute toxicity by the intravenous route in the mouse; conditions: in vivo; for LD50 at 48 h: 48 hours after treatment; for LD50 at 336 h: 14 days after treatment
Protocol: (§1) As for its toxicity, for the determination of which experiments were carried out on two animal species, namely the rat of the OFA strain and the mouse of the OF1 strain, by two routes of administration namely the oral route and the intravenous route, the results obtained were as follows:
ACUTE TOXICITY OF THE PRODUCT S.C.S. 149 ADMINISTERED BY THE INTRAVENOUS ROUTE IN THE MOUSE
ACUTE TOXICITY OF THE S.C.S. 149 PRODUCT ADMINISTERED BY THE INTRAVENOUS ROUTE IN THE MOUSE
LD 50 14 days after treatment.
(§2) For the intravenous route, the product was solubilized in:
sterile water in the mouse
(§3) The volume administered was:
(§4) The product was injected at the level of the caudal vein. Before administration of the product, the animals were kept fasting for 16 to 17 hours.

[3] = system: isoproterenol-induced cardio-acceleration and hypotension; assay: Beta-blocking and sympathomimetic activity against isoproterenol-induced cardio-acceleration and hypotension in anaesthetised dogs; assay type: in vivo, dog; conditions: for beta-blocking properties relative to those of Pindolol: % of the beta-blocking properties of Pindolol, 25 mcg/kg/min i.v.; for beta-blocking effect: isoproterenol perfusion 0.2 mcg/kg/min; for beta-blocking effect / sympathomimetic activity: product perfused i.v. at 25 mcg/kg/min, compared with Pindolol; for sympathomimetic activity: seen on cessation of isoprenaline
Protocol: These tests have been carried out on dogs (of both sexes) of weight comprised between 10 and 25 kg. These dogs were anesthetised by an injection of Pentobarbital (0.1 ml/kg of a 6% solution) and Chloralose (80 mg/kg). The blood pressure was recorded by means of a catheter inserted into the tibial artery and connected to a pressure cell, this pressure being recorded on a Beckman dynograph at the same time as an electrocardiogram; the latter enables the heart rhythm and the heart rate to be checked, integrated by a cardiotachometer.
The blood pressure and the electrocardiogram were first followed for five minutes. Then an isoproterenol solution was perfused into a cephalic vein, at the rate of 0.2 mcg/kg/min, namely 1 ml/min. After fiveperfusing for five minutes, the heart reached a tachycardiac level. At this moment, another perfusion was connected (into the cephalic vein of the other paw) of a Pindolol solution or of the product under study. The compounds of the invention was solubilized in 4 ml of DMF. The volume necessary for the perfusion was obtained by completing it with a 25% DMF solution in distilled water. All the products were injected at the rate of 25 mcg/kg/min. The
The extent to which the products were capable of antagonising the cardio-acceleration on the one hand and the hypotension on the other hand was examined.
After 35 minutes of perfusion, the isoprenaline injection was stopped. The Pindolol perfusion or that of the compound under study was interrupted after 40 minutes.

rats = assay: Six-month toxicological test in rats; assay type: in vivo; conditions: rats of both sexes, daily for six months
Protocol: (§5) Also, toxicological tests have been carried out on 32 dogs (of both sexes) and 160 rats (of both sexes) for six months and have shown that S.C.S. 149 may be tolerated by the rats at a maximum daily dose of 500 mg/kg and by the dogs at a maximum daily dose of 100 mg/kg.

isolated bronchi = assay: Tests on isolated bronchi (bronchial level)
[4] = Acute toxicity by the oral route in the mouse; assay type: in vivo; conditions: in vivo, po, LD 50
Protocol: as §1
(§6) ACUTE TOXICITY OF THE PRODUCT S.C.S. 149 A ADMINISTERED BY THE ORAL ROUTE IN THE MOUSE
(§7) Death took place within 48 hours after treatment
(§8) The product was solubilized, for oral administration, in 2% CMC in water; the volume administered was 25 ml/kg in the mouse and 5 ml/kg in the rat for the dose of 1 g/kg, 10 ml/kg for 2 g/kg and 20 ml/kg for 3.5 and 5 g/kg.
(§9) The product was administered by oesophagal intubation.
as §4

mouse = assay: Acute toxicity by the oral route in the mouse; assay type: in vivo
Protocol: as §1, §6, §7, §8, §9, §4

beta 1 (isolated atria) = assay: Tests on isolated atria (cardiac level)
dogs = assay: Six-month toxicological test in dogs; assay type: in vivo; conditions: dogs of both sexes, daily for six months
Protocol: as §5

rat [5] = assay: Acute toxicity by the oral route in the rat; assay type: in vivo
Protocol: as §1
(§10) ACUTE TOXICITY OF THE S.C.S. 149 PRODUCT ADMINISTERED BY THE ORAL ROUTE IN THE RAT
(§11) Death occured within 48 hours after the treatment.
as §8, §9, §4

[6] = Acute toxicity by the oral route in the rat; assay type: in vivo; conditions: in vivo, po, LD 50
Protocol: as §1, §10, §11, §8, §9, §4

rat [7] = assay: Acute toxicity by the intravenous route in the rat; assay type: in vivo
Protocol: as §1
(§12) ACUTE TOXICITY OF THE PRODUCT S.C.S. 149 ADMINISTERED BY THE INTRAVENOUS ROUTE IN THE RAT
(§13) Death took place within 48 hours after administration of the product.
as §2
(§14) PEG 400+sterile water (1/3+2/3) in the rat.
as §3, §4

[8] = Acute toxicity by the intravenous route in the rat; assay type: in vivo; conditions: in vivo, iv, LD 50
Protocol: as §1, §12, §13, §2, §14, §3, §4

[9] = system: isoproterenol-induced cardio-acceleration and hypotension; conditions: statement on the comparison drug; cited from earlier work

Question: With `CC(C)N(CC(O)COc1cccc2ccccc12)C(N)=O` (stereo not drawn) [SCS 131] as the molecule, how does the cardiac stimulant effect [1] read?
Answer: Its cardiac stimulant effect is “cardiac stimulant effects; also recorded: cardiac stimulants”.

Question: With `CCCCNC(=O)N(CC(O)COc1cccc2ccccc12)C(C)C` (stereo not drawn) [SCS 128] as the molecule, how does the cardiac stimulant effect [1] read?
Answer: The cardiac stimulant effect was “cardiac stimulant effects; also recorded: cardiac stimulants”.

Question: For `Cc1ccccc1OCC(O)CN(C(=N)NC(=O)c1ccccc1)C(C)C` (stereo not drawn) [SCS 149], which LD50 at 48 h ([2]; female mice) is on record?
Answer: The LD50 at 48 h was 38.8 mg/kg.

Question: What about the LD50 at 336 h ([2]; female mice) of the same molecule?
Answer: Its LD50 at 336 h is 38.1 mg/kg.

Question: And the LD50 at 48 h ([2]; male mice)?
Answer: The LD50 at 48 h was 37.2 mg/kg.

Question: And the LD50 at 336 h ([2]; male mice)?
Answer: Its LD50 at 336 h is 37.2 mg/kg.

Question: What about the “beta-blocking properties relative to those of Pindolol” value [3] of the same molecule?
Answer: The value was “about 60%”.

Question: And the beta-blocking effect [3]?
Answer: The beta-blocking effect was “undisputable beta-blocking properties”.

Question: And the beta-blocking effect ([3]; listed as 149)?
Answer: The beta-blocking effect was “beta-blocking effects”.

Question: And the sympathomimetic activity [3]?
Answer: Its sympathomimetic activity is “intrinsic sympathomimetic effects”.

Question: What about the “maximum tolerated daily dose” value (rats) of the same molecule?
Answer: The value was 500 mg/kg.

Question: What about the “blocking activity, type at the bronchial level” value (isolated bronchi) of the same molecule?
Answer: The value was “of the competitive type”.

Question: And the LD50 at 48 h [4]?
Answer: Its LD50 at 48 h is 560 mg/kg.

Question: And the “LD 50” value (mouse; in vivo, po, 48 h)?
Answer: Its value is 604.81 mg/kg.

Question: What about the “time of death after treatment” value (mouse; oral) of the same molecule?
Answer: The value was ≤ 48 h.

Question: And the “beta 1 blocking activity, type at the cardiac level” value (beta 1 (isolated atria))?
Answer: Its value is “beta 1 blocking activity of competitive type”.

Question: And the “maximum tolerated daily dose” value (dogs)?
Answer: The value was 100 mg/kg.

Question: What about the “LD 50” value (rat [5]; in vivo, po, 48 h) of the same molecule?
Answer: The value was 2932.6 mg/kg.

Question: And the “time of death after treatment” value (rat [5]; oral)?
Answer: The value was ≤ 48 h.

Question: And the LD50 at 48 h [6]?
Answer: The LD50 at 48 h was 3330 mg/kg.

Question: And the “LD 50” value (rat [7]; in vivo, iv, 48 h)?
Answer: Its value is 40.37 mg/kg.

Question: What about the “time of death after administration” value (rat [7]; intravenous) of the same molecule?
Answer: The value was ≤ 48 h.

Question: What about the LD50 at 48 h [8] of the same molecule?
Answer: Its LD50 at 48 h is 35.3 mg/kg.

Question: Which “intrinsic sympathomimetic action among beta-blocking agents currently used in therapeutics” value [9] does the source give for `CC(C)NCC(O)COc1cccc2[nH]ccc12` (stereo not drawn) [Pindolol] here?
Answer: The value was “intrinsic sympathomimetic action is greatest”.

Question: With `CCOC(=O)NC(=N)N(CC(O)COc1ccccc1C)C(C)C` (stereo not drawn) [SCS 150] as the molecule, how does the “beta-blocking properties relative to those of Pindolol” value [3] read?
Answer: The value was “about 70%”.

Question: What about the beta-blocking effect [3] of the same molecule?
Answer: Its beta-blocking effect is “adrenergic beta-blocking properties”.

Question: And the beta-blocking effect ([3]; listed as 150)?
Answer: The beta-blocking effect was “beta-blocking effects”.

Question: What about the sympathomimetic activity [3] of the same molecule?
Answer: Its sympathomimetic activity is “intrinsic sympathomimetic effects”.

Question: With `CCOC(=O)NC(=N)N(CC(O)COc1ccc(Cl)cc1)C1CCCCC1` (stereo not drawn) [SCS 147] as the molecule, how does the sympathomimetic activity [3] read?
Answer: Its sympathomimetic activity is “sympathomimetic activity still greater than that of the preceding compound”.

Question: What about the sympathomimetic activity ([3]; listed as 147) of the same molecule?
Answer: The sympathomimetic activity was “sympathomimetic action”.

Question: Which sympathomimetic activity [3] does the source give for `CCOC(=O)NC(=N)N(CC(O)COc1ccccc1C)C1CCCCC1` (stereo not drawn) [SCS 151] here?
Answer: Its sympathomimetic activity is “sympathomimetic characteristics”.

Question: And the sympathomimetic activity ([3]; listed as 151)?
Answer: The sympathomimetic activity was “sympathomimetic action”.

Question: For `CCOC(=O)NC(=N)N(CC(O)COc1ccccc1Cl)C1CCCCC1` (stereo not drawn) [SCS 146], which sympathomimetic activity [3] is on record?
Answer: Its sympathomimetic activity is “sympathomimetic action; also recorded: considerable sympathomimetic activity”.

Question: Which beta-blocking effect [3] does the source give for `CCOC(=O)NC(=N)N(CC(O)COc1ccc(Cl)cc1)C(C)C` (stereo not drawn) [SCS 148] here?
Answer: The beta-blocking effect was “certain betablocking action masked by intrinsic sympathomimetic properties”.

Question: And the sympathomimetic activity [3]?
Answer: Its sympathomimetic activity is “intrinsic sympathomimetic properties”.

Question: And the sympathomimetic activity ([3]; listed as 148)?
Answer: Its sympathomimetic activity is “sympathomimetic action”.
